Measured values: US9540377B2, “2,6,7,8 substituted purines as HDM2 inhibitors” (Merck Sharp & Dohme Corp., priority 2013, dated 2017)

target: HDM2 (truncated, residues 17 to 125, containing p53 binding surface) (Homo sapiens (Human), UniProt Q00987); experiment: HDM2 FRET assay (inhibition of binding of FITC labeled p53-site peptide to HDM2); settings: Table 16
Excerpt: IC50 DETERMINATIONS: Dose-response curves were plotted from the inhibition data, from 10 point serial dilutions of inhibitory compounds. Concentration of compound was plotted against em520/Cem495 ratio signal. To generate IC50 values, the dose-response curves were fitted to a standard sigmoidal curve and IC50 values were derived by nonlinear regression analysis.

Chain of HDM2 (truncated, residues 17 to 125, containing p53 binding surface) (Q00987 17-125): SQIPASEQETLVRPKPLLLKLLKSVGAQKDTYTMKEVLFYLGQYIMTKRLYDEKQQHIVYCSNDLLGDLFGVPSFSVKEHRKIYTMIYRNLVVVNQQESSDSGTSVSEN

Row | Structure (SMILES) | IC50 [nM]
1 | CO[C@H]1CCN(c2nc3nc(-c4n[nH]c(=O)o4)nc(-c4cncc(Cl)c4)c3n2C[C@H]2CC[C@H](C)CC2)[C@@H](C)C1 (racemic) [Example 16.154, 5-{6-(5-chloropyridin-3-yl)-8-[(cis)-4-methoxy-2-methylpiperidin-1-yl]-7-[(trans-4-methylcyclohexyl)methyl]-7H-purin-2-yl}-1,3,4-oxadiazol-2(3H)-one] | 67.2
2 | COC(C)(C)C1CCCN1c1nc2nc(-c3noc(=O)[nH]3)nc(-c3cncc(Cl)c3)c2n1C[C@H]1CC[C@H](C)CC1 (single isomer, unassigned) [Example 16.73, 3-{6-(5-chloropyridin-3-yl)-8-[2-(1-methoxy-1-methylethyl)pyrrolidin-1-yl]-7-[(trans-4-methylcyclohexyl)methyl]-7H-purin-2-yl}-1,2,4-oxadiazol-5(4H)-one] | 1.97
3 | C[C@H]1CC[C@H](Cn2c(N3CCOC4CCCCC43)nc3nc(-c4noc(=O)[nH]4)nc(-c4cccc(Cl)c4)c32)CC1 (single isomer, unassigned) [Example 16.78, 3-(6-(3-chlorophenyl)-7-[(trans-4-methylcyclohexyl)methyl]-8-(octahydro-4H-1,4-benzoxazin-4-yl)-7H-purin-2-yl]-1,2,4-oxadiazol-5(4H)-one] | 1.4

same assay, conditions: Table 18

Row | Structure (SMILES) | IC50 [nM]
4 | CC([C@H]1CC[C@H](C)CC1)n1c(N2CCOC3CCCC32)nc2nc(-c3n[nH]c(=O)o3)nc(-c3cccc(Cl)c3)c21 (single isomer, unassigned) [Example 18.43, 5-{6-(3-chlorophenyl)-8-(hexahydrocyclopenta[b][1,4]oxazin-4(4aH)-yl)-7-[1-(trans-4-methylcyclohexyl)ethyl]-7H-purin-2-yl}-1,3,4-oxadiazol-2(3H)-one] | 14

same assay, conditions: Table 23

Row | Structure (SMILES) | IC50 [nM]
5 | COC(C)(c1c(F)cccc1F)c1nc2nc(-c3noc(=O)[nH]3)nc(-c3cncc(Cl)c3)c2n1C[C@H]1CC[C@H](C)CC1 (single isomer, unassigned) [Example 23.93, 3-{6-(5-chloropyridin-3-yl)-8-[1-(2,6-difluorophenyl)-1-methoxyethyl]-7-[(trans-4-methylcyclohexyl)methyl]-7H-purin-2-yl}-1,2,4-oxadiazol-5(4H)-one] | 0.452
6 | CC(F)(c1c(F)cccc1F)c1nc2nc(-c3noc(=O)[nH]3)nc(-c3cncc(Cl)c3)c2n1C[C@H]1CC[C@H](C)CC1 (single isomer, unassigned) [Example 23.69, 3-{6-(5-chloropyridin-3-yl)-8-[1-(2,6-difluorophenyl)-1-fluoroethyl]-7-[(trans-4-methylcyclohexyl)methyl]-7H-purin-2-yl}-1,2,4-oxadiazol-5(4H)-one] | 0.156
7 | COC(C)(c1ncccc1F)c1nc2nc(-c3n[nH]c(=O)o3)nc(-c3cncc(Cl)c3)c2n1C[C@H]1CC[C@H](C)CC1 (single isomer, unassigned) [Example 23.86, 5-{6-(5-chloropyridin-3-yl)-8-[1-(3-fluoropyridin-2-yl)-1-methoxyethyl]-7-[(trans-4-methylcyclohexyl)methyl]-7H-purin-2-yl}-1,3,4-oxadiazol-2(3H)-one] | 0.675
8 | COC(c1nc2nc(-c3n[nH]c(=O)o3)nc(-c3cncc(Cl)c3)c2n1C[C@H]1CC[C@H](C)CC1)C1CCCC1 (mixture of isomers) [Example 23.23, 5-{6-(5-chloropyridin-3-yl)-8-[cyclopentyl(methoxy)methyl]-7-[(trans-4-methylcyclohexyl)methyl]-7H-purin-2-yl}-1,3,4-oxadiazol-2(3H)-one] | 8.78
9 | C[C@H]1CC[C@H](Cn2c(C3(F)CCOc4cccnc43)nc3nc(-c4n[nH]c(=O)o4)nc(-c4cncc(Cl)c4)c32)CC1 (mixture of isomers) [Example 23.92, 5-{6-(5-chloropyridin-3-yl)-8-(4-fluoro-3,4-dihydro-2H-pyrano[3,2-b]pyridin-4-yl)-7-[(trans-4-methylcyclohexyl)methyl]-7H-purin-2-yl}-1,3,4-oxadiazol-2(3H)-one] | 2.45
10 | COC1(c2nc3nc(-c4n[nH]c(=O)o4)nc(-c4cncc(Cl)c4)c3n2C[C@H]2CC[C@H](C)CC2)CCOc2cccnc21 (mixture of isomers) [Example 23.90, 5-{6-(5-chloropyridin-3-yl)-8-(4-methoxy-3,4-dihydro-2H-pyrano[3,2-b]pyridin-4-yl)-7-[(trans-4-methylcyclohexyl)methyl]-7H-purin-2-yl}-1,3,4-oxadiazol-2(3H)-one] | 7.41
11 | CC(F)(c1ccccc1F)c1nc2nc(-c3n[nH]c(=O)o3)nc(-c3cncc(Cl)c3)c2n1C[C@H]1CC[C@H](C)CC1 (single isomer, unassigned) [Example 23.32, 5-{6-(5-chloropyridin-3-yl)-8-[1-fluoro-1-(2-fluorophenyl)ethyl]-7-[(trans-4-methylcyclohexyl)methyl]-7H-purin-2-yl}-1,3,4-oxadiazol-2(3H)-one] | 16
12 | COC(C)(c1ncccc1F)c1nc2nc(-c3n[nH]c(=O)o3)nc(-c3cncc(Cl)c3)c2n1C[C@H]1CC[C@H](C)CC1 (single isomer, unassigned) [Example 23.87, 5-{6-(5-chloropyridin-3-yl)-8-[1-(3-fluoropyridin-2-yl)-1-methoxyethyl]-7-[(trans-4-methylcyclohexyl)methyl]-7H-purin-2-yl}-1,3,4-oxadiazol-2(3H)-one] | 19.6
13 | CC(F)(c1ncccc1F)c1nc2nc(-c3n[nH]c(=O)o3)nc(-c3cncc(Cl)c3)c2n1C[C@H]1CC[C@H](C)CC1 (single isomer, unassigned) [Example 23.85, 5-{6-(5-chloropyridin-3-yl)-8-[1-fluoro-1-(3-fluoropyridin-2-yl)ethyl]-7-[(trans-4-methylcyclohexyl)methyl]-7H-purin-2-yl}-1,3,4-oxadiazol-2(3H)-one] | 0.359
14 | CC(F)(c1ncccc1F)c1nc2nc(-c3noc(=O)[nH]3)nc(-c3cncc(Cl)c3)c2n1C[C@H]1CC[C@H](C)CC1 (single isomer, unassigned) [Example 23.98, 3-{6-(5-chloropyridin-3-yl)-8-[1-fluoro-1-(3-fluoropyridin-2-yl)ethyl]-7-[(trans-4-methylcyclohexyl)methyl]-7H-purin-2-yl}-1,2,4-oxadiazol-5(4H)-one] | 9.74
15 | CC(F)(c1ccccn1)c1nc2nc(-c3noc(=O)[nH]3)nc(-c3cccc(Cl)c3)c2n1C[C@H]1CC[C@H](C)CC1 (single isomer, unassigned) [Example 23.30, 3-{6-(3-chlorophenyl)-8-(1-fluoro-1-pyridin-2-ylethyl)-7-[(trans-4-methylcyclohexyl)methyl]-7H-purin-2-yl}-1,2,4-oxadiazol-5(4H)-one] | 6.7
16 | CC(c1ccccc1F)c1nc2nc(-c3n[nH]c(=O)o3)nc(-c3cncc(Cl)c3)c2n1C[C@H]1CC[C@H](C)CC1 (mixture of isomers) [Example 23.114, 5-{6-(5-chloropyridin-3-yl)-8-[1-(2-fluorophenyl)ethyl]-7-[(trans-4-methylcyclohexyl)methyl]-7H-purin-2-yl}-1,3,4-oxadiazol-2(3H)-one] | 2.13
17 | COc1ccccc1C(C)(OC)c1nc2nc(-c3n[nH]c(=O)o3)nc(-c3cncc(Cl)c3)c2n1C[C@H]1CC[C@H](C)CC1 (mixture of isomers) [Example 23.78, 5-{6-(5-chloropyridin-3-yl)-8-[1-methoxy-1-(2-methoxyphenyl)ethyl]-7-[(trans-4-methylcyclohexyl)methyl]-7H-purin-2-yl}-1,3,4-oxadiazol-2(3H)-one] | 8.22
